Results: the NIST ThermoML archive (doi:10.1007/s10765-017-2241-7)
Numbers after ± are expanded uncertainties.

Details: Liquid, Bellows volumetry

In the case of `CC1CCCCC1` [methylcyclohexane], the mass density (410 K, 10000 kPa) is reported as 680.503 ± 1.5 kg/m3, the mass density (410 K, 20000 kPa) is reported as 695.044 ± 1.5 kg/m3 and the mass density (410 K, 30000 kPa) is reported as 707.272 ± 1.6 kg/m3. The mass density (410 K, 40000 kPa) was 717.821 ± 1.6 kg/m3, the mass density (410 K, 50000 kPa) was 727.698 ± 1.6 kg/m3 and the mass density (410 K, 60000 kPa) was 736.124 ± 1.6 kg/m3. It also gave a mass density (410 K, 70000 kPa) of 743.853 ± 1.6 kg/m3, a mass density (410 K, 80000 kPa) of 750.846 ± 1.7 kg/m3 and a mass density (410 K, 90000 kPa) of 757.777 ± 1.7 kg/m3. It also gave a mass density (410 K, 100000 kPa) of 764.111 ± 1.7 kg/m3, a mass density (410 K, 120000 kPa) of 776.018 ± 1.7 kg/m3 and a mass density (410 K, 140000 kPa) of 786.383 ± 1.7 kg/m3. The mass density (410 K, 160000 kPa) was 795.899 ± 1.8 kg/m3, the mass density (410 K, 180000 kPa) was 804.482 ± 1.8 kg/m3 and the mass density (410 K, 200000 kPa) was 812.647 ± 1.8 kg/m3. For the same molecule, the mass density (450 K, 10000 kPa) was 645.737 ± 1.4 kg/m3, the mass density (450 K, 20000 kPa) was 664.914 ± 1.5 kg/m3 and the mass density (450 K, 30000 kPa) was 680.595 ± 1.5 kg/m3. The mass density (450 K, 40000 kPa) was 693.215 ± 1.5 kg/m3, the mass density (450 K, 50000 kPa) was 704.34 ± 1.6 kg/m3 and the mass density (450 K, 60000 kPa) was 714.464 ± 1.6 kg/m3. For the same molecule, the mass density (450 K, 70000 kPa) was 723.281 ± 1.6 kg/m3, the mass density (450 K, 80000 kPa) was 731.598 ± 1.6 kg/m3 and the mass density (450 K, 90000 kPa) was 739.304 ± 1.6 kg/m3. For the same molecule, the mass density (450 K, 100000 kPa) was 746.296 ± 1.6 kg/m3, the mass density (450 K, 120000 kPa) was 759.037 ± 1.7 kg/m3 and the mass density (450 K, 140000 kPa) was 770.433 ± 1.7 kg/m3. It also gave a mass density (450 K, 160000 kPa) of 780.708 ± 1.7 kg/m3, a mass density (450 K, 180000 kPa) of 790.183 ± 1.7 kg/m3 and a mass density (450 K, 200000 kPa) of 798.897 ± 1.8 kg/m3. For the same molecule, the mass density (500 K, 10000 kPa) was 595.224 ± 1.3 kg/m3, the mass density (500 K, 20000 kPa) was 623.145 ± 1.4 kg/m3 and the mass density (500 K, 30000 kPa) was 643.213 ± 1.4 kg/m3. For the same molecule, the mass density (500 K, 40000 kPa) was 659.481 ± 1.5 kg/m3, the mass density (500 K, 50000 kPa) was 672.946 ± 1.5 kg/m3 and the mass density (500 K, 60000 kPa) was 684.828 ± 1.5 kg/m3. The mass density (500 K, 70000 kPa) was 695.54 ± 1.5 kg/m3, the mass density (500 K, 80000 kPa) was 704.872 ± 1.6 kg/m3 and the mass density (500 K, 90000 kPa) was 713.602 ± 1.6 kg/m3. It also gave a mass density (500 K, 100000 kPa) of 721.454 ± 1.6 kg/m3, a mass density (500 K, 120000 kPa) of 735.845 ± 1.6 kg/m3 and a mass density (500 K, 140000 kPa) of 748.645 ± 1.6 kg/m3. It also gave a mass density (500 K, 160000 kPa) of 759.878 ± 1.7 kg/m3, a mass density (500 K, 180000 kPa) of 770.353 ± 1.7 kg/m3 and a mass density (500 K, 200000 kPa) of 779.786 ± 1.7 kg/m3. For the same molecule, the mass density (550 K, 10000 kPa) was 537.032 ± 1.2 kg/m3, the mass density (550 K, 20000 kPa) was 579.029 ± 1.3 kg/m3 and the mass density (550 K, 30000 kPa) was 605.816 ± 1.3 kg/m3. For the same molecule, the mass density (550 K, 40000 kPa) was 626.206 ± 1.4 kg/m3, the mass density (550 K, 50000 kPa) was 642.447 ± 1.4 kg/m3 and the mass density (550 K, 60000 kPa) was 656.179 ± 1.4 kg/m3. For the same molecule, the mass density (550 K, 70000 kPa) was 668.08 ± 1.5 kg/m3, the mass density (550 K, 80000 kPa) was 678.738 ± 1.5 kg/m3 and the mass density (550 K, 90000 kPa) was 688.637 ± 1.5 kg/m3. It also gave a mass density (550 K, 100000 kPa) of 697.29 ± 1.5 kg/m3, a mass density (550 K, 120000 kPa) of 713.086 ± 1.6 kg/m3 and a mass density (550 K, 140000 kPa) of 726.911 ± 1.6 kg/m3. The mass density (550 K, 160000 kPa) was 739.33 ± 1.6 kg/m3, the mass density (550 K, 180000 kPa) was 750.159 ± 1.7 kg/m3 and the mass density (550 K, 200000 kPa) was 760.464 ± 1.7 kg/m3. The mass density (600 K, 12000 kPa) was 485.331 ± 1.2 kg/m3, the mass density (600 K, 20000 kPa) was 532.582 ± 1.2 kg/m3 and the mass density (600 K, 30000 kPa) was 567.711 ± 1.3 kg/m3. For the same molecule, the mass density (600 K, 40000 kPa) was 592.364 ± 1.3 kg/m3, the mass density (600 K, 50000 kPa) was 611.576 ± 1.4 kg/m3 and the mass density (600 K, 60000 kPa) was 627.511 ± 1.4 kg/m3. For the same molecule, the mass density (600 K, 70000 kPa) was 641.114 ± 1.4 kg/m3, the mass density (600 K, 80000 kPa) was 653.239 ± 1.4 kg/m3 and the mass density (600 K, 90000 kPa) was 664.012 ± 1.5 kg/m3. It also gave a mass density (600 K, 100000 kPa) of 673.632 ± 1.5 kg/m3, a mass density (600 K, 120000 kPa) of 690.895 ± 1.5 kg/m3 and a mass density (600 K, 140000 kPa) of 705.698 ± 1.6 kg/m3. The mass density (600 K, 160000 kPa) was 718.93 ± 1.6 kg/m3, the mass density (600 K, 180000 kPa) was 730.911 ± 1.6 kg/m3 and the mass density (600 K, 200000 kPa) was 741.384 ± 1.6 kg/m3.
